Laboratory results taken from paper PMC11249646, “Small-Molecule Disruptors of the Interaction between Calcium- and Integrin-Binding Protein 1 and Integrin αIIbβ3 as Novel Antiplatelet Agents” (ACS Pharmacology & Translational Science, 2024).
Where two headings read alike, the source gives them in different places.

Assays:
Assay type in all cases: binding
[1] = biological target: T1, GST-CIB1 : F-scrambled peptide (Homo sapiens, UniProt Q99828); test: FP scrambled-peptide counter screen, 384-well format; conditions: F-scrambled peptide; for 384-well COUNTERSCREEN Confirm?: *: Curve in opposite direction; for IC50: read-out: 384-well COUNTERSCREEN IC50
T1 construct: made in house; host or cells: BL-21 plus RIL cells (E. coli)
T1 sequence (Q99828 1-191): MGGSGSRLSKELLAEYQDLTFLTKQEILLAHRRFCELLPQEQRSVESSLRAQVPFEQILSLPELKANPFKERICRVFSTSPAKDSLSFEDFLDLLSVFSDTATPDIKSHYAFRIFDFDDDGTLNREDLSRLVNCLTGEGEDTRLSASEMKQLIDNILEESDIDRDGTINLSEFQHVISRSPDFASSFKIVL

[2] = biological target: T2, CIB1 and αIIb interaction (CIB1-GST : F-αIIb peptide) (Homo sapiens, UniProt Q99828); test: FP assay, 1536-well qHTS format (primary and confirmatory screen); conditions: for CONFIRMATORY SCREEN Confirm?: YES/NO call; for CONFIRMATORY SCREEN Curve Class: qHTS curve class; for CONFIRMATORY SCREEN Curve Class / Curve Class: negative sign = inhibitory curve; for CONFIRMATORY SCREEN Efficacy (%) / Efficacy (%): negative = inhibition
T2 construct: made in house; host or cells: BL-21 plus RIL cells (E. coli)
T2 sequence (Q99828 1-191): T1 sequence (Q99828 1-191)

[3] = biological target: T1, GST-CIB1 : F-scrambled peptide; test: FP scrambled-peptide counter screen, 1536-well format; conditions: scrambled-peptide counterscreen; for COUNTERSCREEN Confirm?: YES/NO call; for COUNTERSCREEN Curve Class: qHTS curve class; for IC50: read-out: COUNTERSCREEN IC50
[4] = biological target: T3, CIB1 and αIIb interaction (GST-CIB1 : F-αIIb peptide) (Homo sapiens, UniProt Q99828); test: FP assay, 384-well format (screen); design: 384-well SCREEN Efficacy (%): concentration or dose not given beside the values; conditions: F-αIIb peptide; for 384-well SCREEN Confirm?: YES/NO; for IC50: read-out: 384-well SCREEN IC50
T3 construct: made in house; host or cells: BL-21 plus RIL cells (E. coli)
T3 sequence (Q99828 1-191): T1 sequence (Q99828 1-191)

[5] = confirmatory screen, read-out: CONFIRMATORY SCREEN IC50
[6] = qHTS FP screen hits, Table S2, one class per curve where COUNT > 1
[7] = qHTS FP screen hits, Table S2, read-out: IC50
[8] = qHTS primary screen hits, Table S2
[9] = qHTS primary screen hits, Table S2, several classes where COUNT > 1
[10] = qHTS primary screen hits, Table S2, read-out: IC50

Row | Structure (SMILES) | 384-well COUNTERSCREEN Efficacy (%) [1] | 384-well COUNTERSCREEN Confirm? [1] | IC50 [1] | CONFIRMATORY SCREEN Confirm? ([2]; confirmatory screen) | CONFIRMATORY SCREEN Curve Class ([2]; confirmatory screen) | CONFIRMATORY SCREEN Efficacy (%) ([2]; confirmatory screen) | IC50 [2, 5] | COUNTERSCREEN Efficacy (%) [3] | COUNTERSCREEN Confirm? [3] | COUNTERSCREEN Curve Class [3] | 384-well SCREEN Efficacy (%) [4] | 384-well SCREEN Confirm? [4] | IC50 [4] | Efficacy (%) ([2]; qHTS FP screen hits, Table S2) | IC50 [2, 7] | Efficacy (%) [2, 8] | Curve Class [2, 9] | IC50 [2, 10] | further results
1 | CCCCCCCCOc1ccccc1C(=O)Nc1ccc(C(=O)OCC[N+](C)(CC)CC)cc1.[Br-] [NCGC00163507-02] | 39% | YES | > 120 µM | YES | -3 | -60% | 39.8 µM | 0% | YES | 4 | 69% | YES | 12.6 µM | – | – | – | – | – | –
2 | O=c1sc2ccccc2c(O)c1C1CC(c2ccc(-c3ccc(Br)cc3)cc2)Cc2ccccc21 (stereo not shown) [NCGC00262959-01] | 156% | – | 25.1 µM | YES | -1.4 | -49% | 7.1 µM | 118% | YES | – | 87% | – | > 120 µM | -38% | 17.8 µM | – | – | – | Curve Class [2, 6]: -1.2; IC50 [3]: 79.4 µM
3 | CCOC(=O)c1ccc(O)c2ncc(-c3ccc(C(=N)N)cc3)cc12.O=C(O)C(F)(F)F [NCGC00241050-01] | 77% | Inconclusive | – | YES | -2.2 | -52% | – | -18% | YES | 4 | 87% | YES | 20 µM | -77% | 44.7 µM | – | – | – | –
4 | N#Cc1cnc(NS(=O)(=O)c2ccc(NC(=O)Cc3ccc(F)c(Cl)c3)cc2)s1.O=C(O)C(F)(F)F [NCGC00343826-01] | 28% | YES | > 120 µM | YES | -1.4 | -50% | – | 24% | YES | 4 | 36% | YES | 2.2 µM | – | – | -29% | -1.2 | 2.8 µM | –
5 | COc1nn(CSP(=S)(OC)OC)c(=O)s1 [NCGC00163724-03] | 60% | YES | > 120 µM | YES | -1.4 | -47% | 20 µM | 0% | YES | 4 | 80% | YES | 15.8 µM | – | – | -47% | -1.2 | 58.6 µM | –
6 | O=C1C=CC(=O)N1c1cccc(Br)c1 [NCGC00373120-01] | 74% | YES | > 120 µM | YES | -1.2 | -38% | 8.9 µM | 14% | YES | 4 | 42% | YES | 10 µM | – | – | -54% | – | 7.1 µM | Curve Class [2, 8]: -1.2
7 | N#Cc1cnc(NS(=O)(=O)c2ccc(NC(=O)Cc3ccc(Cl)c(Cl)c3)cc2)s1.O=C(O)C(F)(F)F [NCGC00250147-02] | 25% | YES | > 120 µM | YES | -1.2 | -48% | 6.3 µM | 20% | YES | 4 | 42% | YES | 7.9 µM | -40% | 5.6 µM | – | – | – | Curve Class [2, 6]: -1.2
8 | O=C(O)C(F)(F)F.OCc1ccc(-c2ccc3ncnc(NCc4nccs4)c3c2)o1 [NCGC00238383-01] | 47% | – | 39.8 µM | YES | -3 | -52% | 70.8 µM | -16% | YES | 4 | 69% | YES | 25.1 µM | – | – | -70% | – | 39.8 µM | Curve Class [2, 8]: -2.2
9 | Cc1cc(NS(=O)(=O)c2ccc(NCCc3ccc(Cl)c(Cl)c3)cc2)no1.O=C(O)C(F)(F)F [NCGC00244100-02] | 23% | YES | > 120 µM | YES | -2.4 | -36% | – | 132% | YES | 3 | 42% | YES | 22.4 µM | -22% | 22.4 µM | – | – | – | IC50 [3]: 39.8 µM
10 | CCc1nnc(NS(=O)(=O)c2ccc(NC(=S)NC(=O)/C=C/c3ccc(F)cc3)cc2)s1 [NCGC00351476-01] | -30% | – | 5 µM | YES | -1.2 | -36% | 8.9 µM | 57% | YES | 3 | 30% | YES | 4.5 µM | -29% | 7.9 µM | – | – | – | Curve Class [2, 6]: -1.2; IC50 [3]: 70.8 µM
11 | C=CCNc1oc(-c2ccc(-c3ccccc3)cc2)nc1C#N.O=C(O)C(F)(F)F [NCGC00183413-01] | 58% | – | 7.1 µM | YES | -1.2 | -66% | 17.8 µM | -17% | YES | 4 | 74% | YES | 7.1 µM | – | – | -28% | -1.4 | 10 µM | –
12 | Cc1ccc(S(=O)(=O)Nc2cnccc2C(=O)Nc2nc(-c3ccc(C)c(C)c3)cs2)cc1.O=C(O)C(F)(F)F [NCGC00318954-01] | 37% | YES* | 31.6 µM | YES | -1.4 | -70% | 22.4 µM | 17% | YES | 4 | 52% | YES | 16 µM | – | – | -61% | -3 | – | –
13 | CC(O)c1ccc(-c2ccc3ncnc(NCc4nccs4)c3c2)o1.O=C(O)C(F)(F)F (stereo not shown) [NCGC00238382-01] | 36% | YES | 17.7 µM | YES | -3 | -53% | – | 0% | YES | 4 | 61% | YES | 14.1 µM | -63% | 39.8 µM | – | – | – | Curve Class [2, 6]: -2.2
14 | O=C(Cc1ccc(Cl)c(Cl)c1)Nc1ccc(S(=O)(=O)Nc2nnc(-c3ccccn3)s2)cc1.O=C(O)C(F)(F)F [NCGC00248355-01] | 38% | YES | > 120 µM | YES | -2.1 | -132% | 35.5 µM | -73% | YES | -2.4 | 44% | YES | 11.2 µM | – | – | -50% | -1.2 | 25.1 µM | IC50 [3]: 79.4 µM
